Literature values, collected in patent publication US20260098286A1, “Low Dose Psilocybin in Foodstuff and Microbes for Same” (ATX PHARMERS LLC, priority 2021, published 2026).

Columns and labels:
[1] = system: human serotonin-related receptors
[2] = degrades in the presence of oxygen
[3] = adults
[4] = weight per weight basis
[5] = in vivo
[6] = not given; remark: listed apart in the source

CN(C)CCc1c[nH]c2cccc(O)c12 [psilocin]
number of human serotonin-related receptors bound [1]: over 15 | stability in solution [2]: relatively unstable | blood plasma concentration at which psychological effects occur [3]: 4-6 μg/liter | psilocin concentrations in the plasma (average) ([3]; within 2 hours after single 15 mg oral psilocybin dose): about 8 μg/liter

CN(C)CCc1c[nH]c2cccc(OP(=O)(O)O)c12 [psilocybin, 4-phosphoryloxy-N,N-dimethyltryptamine]
effects begin after ingestion (after ingestion): 10 to 40 min | effects last (depending on dose, species, and individual metabolism): 2 to 6 h | half-life of psilocybin (taken orally): 2.72 ± 1.07 h | potency relative to LSD (times less potent) [4]: about 100 times | toxicity [5]: low toxicity | detectability in the urine ([6]; after 7 days): still detectable | ingested psilocybin absorbed through the stomach and intestine ([6]; animal studies): about 50% | absorbed psilocybin excreted in the bile and feces ([6]; within 24 hours): 15-20% | absorbed psilocybin excreted into the urine ([6]; within 24 hours): about 65%
